Common to all, as to format: in vivo
One test concerns Mythimna separata. The test is described as follows: Efficacy test against Mythimna separata (maize leaf dip). The following applies: 125 ppm by mass, maize leaf pieces immersed 30 seconds, second-instar larvae, 6 days after release, 25° C. The text has this:
(§1) 5 parts by mass of the compound of the present invention, 93.6 parts by mass of dimethylformamide, and 1.4 parts by mass of polyoxyethylene alkylaryl ether were mixed and dissolved to prepare an emulsion (I) containing 5% of an active ingredient.
Maize leaf pieces were immersed in the diluent solution for 30 seconds. These maize leaf pieces were placed in a petri dish, and five second-instar larvae of Mythimna separata were released to prepare an emulsion-treated section.
Similarly, the solvent control solution was diluted with water at the same ratio as that of the emulsion (I), and maize leaf pieces were immersed therein for 30 seconds. These maize leaf pieces were placed in a petri dish, and five second-instar larvae of Mythimna separata were released to prepare a solvent control section.
The petri dishes were left to stand in a thermostatic chamber at a temperature of 25° C. and a humidity of 60% during the test period. Mortality was evaluated at a time of passage of 6 days from the release of the insects, and the insecticidal rate in the emulsion-treated section was calculated, based on the following expression. At the same time, the food consumptions in the emulsion-treated section and the solvent control section were measured. The test was repeated twice.
Insecticidal rate (%)=(Number of dead insects/Number of test insects)×100

In the next test the test system is Tetranychus kanzawai. Briefly: Efficacy test against Tetranychus kanzawai (spray on kidney bean). The note with it: 240 h, 125 ppm by mass, sprayed on kidney bean plants, adult females, 10 days after spraying, 25° C., read-out: insecticical rate against Tetranychus kanzawai (mortality of adults).
Text: as §1
The primary leaves of Kidney bean plants were inoculated with 5 adult female Tetranychus kanzawai from Okayama Prefecture. […] This drug was sprayed on the Kidney bean plants and air-dried. The kidney bean seedlings were then placed in a thermostatic chamber with a temperature of 25° C. and humidity of 65%. Mortality of the adult […] was investigated after 10 days had passed from the spraying. The test was repeated twice.

For a further test, the system named is Tetranychus urticae. The test is described as follows: Efficacy test against Tetranychus urticae (spray on green beans). The note with it: 240 h, 125 ppm by mass, sprayed on green beans, adult females, 10 days after spraying, 25° C., read-out: insecticical rate against Tetranychus urticae (mortality of adults). On the procedure:
as §1
Seedlings of green beans were grown in 3-inch pots, and 8 adult female Tetranychus urticae from Aomori Prefecture were inoculated onto the first leaves. […] The diluent solution was sprayed on the green beans. The green beans were then placed in a thermostatic chamber with a temperature of 25° C. and humidity of 65%. Mortality of the adult […] was investigated after 10 days had passed from the spraying. The test was repeated twice.

On to `CCSCCC(CC)(CC)CNC(=O)c1cc(C#N)c(-c2ccc(OC(F)(F)F)cc2OC)nc1C` [A-27], for which the “Insecticidal rate against Mythimna separata” value in the test on Mythimna separata came to 90%. Usually mortality stands for the percentage killed. With `CCSCCC(CC)(CC)CNC(=O)c1cc(C#N)c(-c2ccc(C(F)(F)F)cc2)nc1C` [A-78, 5-Cyano-N-[2,2-diethyl-4-(ethylthio)butyl]-2-methyl-6-[4-(trifluoromethyl)phenyl]nicoti namide], the mortality at 125 ppm in the test on Tetranychus kanzawai and with Tetranychus urticae was no less than 90% in each case. Consider `CCSCCC(C)(C)CN(C)C(=O)c1cc(C#N)c(-c2ccc(C(F)(C(F)(F)F)C(F)(F)F)cc2)nc1C` [A-105], for which the “Insecticidal rate against Mythimna separata” value in the test on Mythimna separata was determined as 90%. `CCSCC(C)(C)CN(C)C(=O)c1cc(C#N)c(-c2ccc(C(F)(F)F)cc2)nc1C` [A-146, 5-Cyano-N-[3-(ethylthio)-2,2-dimethylpropyl]-N,2-dimethyl-6-[4-(trifluoromethyl)pheny 1]nicotinamide]: the mortality at 125 ppm in the test on Tetranychus kanzawai and in the test with Tetranychus urticae was no less than 90% each time. In the case of `CCSCC(C)(C)CNC(=O)c1cc(C#N)c(-c2ccc(C(F)(F)F)cc2)nc1C` [A-147, 5-Cyano-N-[3-(ethylthio)-2,2-dimethylpropyl]-2-methyl-6-[4-(trifluoromethyl)phenyl]ni cotinamide], the mortality at 125 ppm with Tetranychus kanzawai and in the test on Tetranychus urticae was no less than 90% throughout. As for `CCSCCC(CC)(CC)CNC(=O)c1cc(C#N)c(-c2ccc(C(F)(F)F)cc2)cc1C(F)(F)F` [C-7, 2-Cyano-N-[2,2-diethyl-4-(ethylthio)butyl]-4′,5-bis(trifluoromethyl)-(1,1′-biphenyl)-4-ca rboxamide], the mortality at 125 ppm with Tetranychus kanzawai and in the test on Tetranychus urticae was no less than 90% each time.

(Values after patent publication US20240254086A1, “(HETERO)ARYLAMIDE COMPOUND AND PEST CONTROL AGENT” (Nippon Soda Co., Ltd., priority 2021, published 2024).)
